Measured values reported in article PMC5218480 (PLoS ONE, 2017).

Test system: MV-4-11 cells
Experiment: Gene expression microarray analysis (Affymetrix PrimeView) and GSEA
Assay type: cell-based, human
Design: RFU PODN (11730768_x_at) / Fold change /veh PODN (11730768_x_at) / RFU LINC00158 (11744669_a_at) / Fold change /veh LINC00158 (11744669_a_at) / RFU DUSP10 (11751237_a_at) / Fold change /veh DUSP10 (11751237_a_at) / RFU ID3 (11757404_x_at) / Fold change /veh ID3 (11757404_x_at) / RFU PLEKHG5 (11737974_s_at) / Fold change /veh PLEKHG5 (11737974_s_at) / RFU LRRC4B (11730491_at) / Fold change /veh LRRC4B (11730491_at) / RFU GIMAP4 (11747438_a_at) / Fold change /veh GIMAP4 (11747438_a_at) / RFU KRT8 (11758183_x_at) / Fold change /veh KRT8 (11758183_x_at) / RFU CNN1 (11734310_a_at) / Fold change /veh CNN1 (11734310_a_at) / RFU VPS37D (11726825_at) / Fold change /veh VPS37D (11726825_at) / RFU C10orf10 (11716522_x_at) / Fold change /veh C10orf10 (11716522_x_at) / RFU KIR2DL2 /// KIR2DL4 /// KIR2DL5A /// KIR2DL5B /// KIR2DS1 /// KIR2DS2 /// KIR2DS3 /// KIR2DS4 /// KIR3DL3 /// KIR3DL3 /// KIR3DS1 (11738374_at) / Fold change /veh KIR2DL2 /// KIR2DL4 /// KIR2DL5A /// KIR2DL5B /// KIR2DS1 /// KIR2DS2 /// KIR2DS3 /// KIR2DS4 /// KIR3DL3 /// KIR3DL3 /// KIR3DS1 (11738374_at) / RFU C1QL1 (11718748_at) / Fold change /veh C1QL1 (11718748_at) / RFU TMPRSS4 (11747572_a_at) / Fold change /veh TMPRSS4 (11747572_a_at) / RFU HAMP (11756126_x_at) / Fold change /veh HAMP (11756126_x_at) / RFU RNFT2 (11725882_a_at) / Fold change /veh RNFT2 (11725882_a_at) / RFU NR4A2 (11747474_a_at) / Fold change /veh NR4A2 (11747474_a_at) / RFU ABCC12 (11746883_a_at) / Fold change /veh ABCC12 (11746883_a_at) / RFU TMEM136 (11760407_x_at) / Fold change /veh TMEM136 (11760407_x_at) / RFU CLDN22 /// WWC2 (11732394_at) / Fold change /veh CLDN22 /// WWC2 (11732394_at) / RFU HLA-DPB1 (11760878_x_at) / Fold change /veh HLA-DPB1 (11760878_x_at) / RFU SPINT1 (11716480_a_at) / Fold change /veh SPINT1 (11716480_a_at) / RFU GAP43 (11754022_s_at) / Fold change /veh GAP43 (11754022_s_at) / RFU A4GNT (11735810_at) / Fold change /veh A4GNT (11735810_at) / RFU PRB3 (11715151_x_at) / Fold change /veh PRB3 (11715151_x_at) / RFU TUBB4B (11761932_at) / Fold change /veh TUBB4B (11761932_at) / RFU CAPN14 (11732068_a_at) / Fold change /veh CAPN14 (11732068_a_at) / RFU TMCC2 (11721928_a_at) / Fold change /veh TMCC2 (11721928_a_at) / RFU IRGQ (11745062_a_at) / Fold change /veh IRGQ (11745062_a_at) / RFU FAM174B (11720279_a_at) / Fold change /veh FAM174B (11720279_a_at) / RFU TMPRSS4 (11748680_a_at) / Fold change /veh TMPRSS4 (11748680_a_at) / RFU FAM212B (11763350_a_at) / Fold change /veh FAM212B (11763350_a_at) / RFU PLEKHG5 (11743358_a_at) / Fold change /veh PLEKHG5 (11743358_a_at) / RFU ZSCAN30 (11745921_a_at) / Fold change /veh ZSCAN30 (11745921_a_at) / RFU CMKLR1 (11741424_a_at) / Fold change /veh CMKLR1 (11741424_a_at) / RFU LOC101060620 /// MAPK8IP1 (11723275_at) / Fold change /veh LOC101060620 /// MAPK8IP1 (11723275_at) / RFU SPTSSB (11747773_x_at) / Fold change /veh SPTSSB (11747773_x_at) / RFU PRSS12 (11739890_at) / Fold change /veh PRSS12 (11739890_at) / RFU BIN1 (11741810_x_at) / Fold change /veh BIN1 (11741810_x_at) / RFU WNT11 (11732464_a_at) / Fold change /veh WNT11 (11732464_a_at) / RFU C10orf10 (11716521_a_at) / Fold change /veh C10orf10 (11716521_a_at) / RFU C5orf56 (11738089_at) / Fold change /veh C5orf56 (11738089_at) / RFU CYB561 (11721691_x_at) / Fold change /veh CYB561 (11721691_x_at) / RFU ANKRD19P (11752326_a_at) / Fold change /veh ANKRD19P (11752326_a_at) / RFU OR2T12 /// OR2T33 /// OR2T8 (11738714_s_at) / Fold change /veh OR2T12 /// OR2T33 /// OR2T8 (11738714_s_at) / RFU VCAN (11748164_a_at) / Fold change /veh VCAN (11748164_a_at) / RFU JSRP1 (11732532_at) / Fold change /veh JSRP1 (11732532_at) / RFU KRTAP10-11 (11738290_x_at) / Fold change /veh KRTAP10-11 (11738290_x_at) / RFU MYO3A (11730013_a_at) / Fold change /veh MYO3A (11730013_a_at) / RFU EBF3 (11725865_a_at) / Fold change /veh EBF3 (11725865_a_at) / RFU CAMK2N1 (11719241_x_at) / Fold change /veh CAMK2N1 (11719241_x_at) / RFU C5orf56 (11738088_a_at) / Fold change /veh C5orf56 (11738088_a_at) / RFU OLFML3 (11715873_a_at) / Fold change /veh OLFML3 (11715873_a_at) / RFU LOC100653217 /// NTM (11731650_a_at) / Fold change /veh LOC100653217 /// NTM (11731650_a_at) / RFU MAPK11 (11762145_a_at) / Fold change /veh MAPK11 (11762145_a_at) / RFU FIZ1 (11724087_x_at) / Fold change /veh FIZ1 (11724087_x_at) / RFU OASL (11726364_x_at) / Fold change /veh OASL (11726364_x_at) / RFU SOX15 (11748057_x_at) / Fold change /veh SOX15 (11748057_x_at) / RFU CD79A (11719716_a_at) / Fold change /veh CD79A (11719716_a_at) / RFU HIST1H1D (11736915_at) / Fold change /veh HIST1H1D (11736915_at) / RFU CASKIN2 (11723855_a_at) / Fold change /veh CASKIN2 (11723855_a_at) / RFU LOC730098 (11760151_x_at) / Fold change /veh LOC730098 (11760151_x_at) / RFU OR4N2 (11742367_at) / Fold change /veh OR4N2 (11742367_at) / RFU PRRT2 (11749266_a_at) / Fold change /veh PRRT2 (11749266_a_at) / RFU SNX32 (11753110_a_at) / Fold change /veh SNX32 (11753110_a_at) / RFU CDHR5 (11726645_a_at) / Fold change /veh CDHR5 (11726645_a_at) / RFU RCAN1 (11760418_a_at) / Fold change /veh RCAN1 (11760418_a_at) / RFU FAM167A (11723789_a_at) / Fold change /veh FAM167A (11723789_a_at) / RFU FAM26E (11764081_at) / Fold change /veh FAM26E (11764081_at) / RFU ISYNA1 (11749810_s_at) / Fold change /veh ISYNA1 (11749810_s_at) / RFU ACY1 (11761880_at) / Fold change /veh ACY1 (11761880_at) / RFU 11764098_at / Fold change /veh 11764098_at / RFU SAMD14 (11745864_x_at) / Fold change /veh SAMD14 (11745864_x_at) / RFU NPB (11741838_a_at) / Fold change /veh NPB (11741838_a_at) / RFU TMPRSS6 (11731388_a_at) / Fold change /veh TMPRSS6 (11731388_a_at) / RFU KRTAP10-2 (11738614_at) / Fold change /veh KRTAP10-2 (11738614_at) / RFU ARHGAP8 /// PRR5-ARHGAP8 (11727945_x_at) / Fold change /veh ARHGAP8 /// PRR5-ARHGAP8 (11727945_x_at) / RFU KRTAP5-7 /// NADSYN1 (11734609_at) / Fold change /veh KRTAP5-7 /// NADSYN1 (11734609_at) / RFU RASL12 (11751679_a_at) / Fold change /veh RASL12 (11751679_a_at) / RFU CDKN2B (11736163_a_at) / Fold change /veh CDKN2B (11736163_a_at) / RFU PRF1 (11729649_at) / Fold change /veh PRF1 (11729649_at) / RFU, ZNF638 /// ZNF638-IT1 / Fold change vs veh, ZNF638 /// ZNF638-IT1 / RFU, PANK3 / Fold change vs veh, PANK3 / RFU, SH3YL1 / Fold change vs veh, SH3YL1 / RFU, ZEB2 / Fold change vs veh, ZEB2 / RFU, NRIP1 / Fold change vs veh, NRIP1 / RFU, PTTG1IP / Fold change vs veh, PTTG1IP / RFU, CAPN2 / Fold change vs veh, CAPN2 / RFU, MED14 / Fold change vs veh, MED14 / RFU, SNORA58 / Fold change vs veh, SNORA58 / RFU, C1orf63 / Fold change vs veh, C1orf63 / RFU, LRRFIP1 / Fold change vs veh, LRRFIP1 / RFU, NDUFAF7 / Fold change vs veh, NDUFAF7 / RFU, SLC12A2 / Fold change vs veh, SLC12A2 / RFU, IBTK / Fold change vs veh, IBTK / RFU, ESF1 / Fold change vs veh, ESF1 / Fold change vs veh, TMEM50B / RFU, TAOK1 / Fold change vs veh, TAOK1 / RFU, ACBD3 / Fold change vs veh, ACBD3 / RFU, TMA16 / Fold change vs veh, TMA16 / RFU, RWDD3 / Fold change vs veh, RWDD3 / RFU, BCAT1 / Fold change vs veh, BCAT1 / RFU, EDEM3 / Fold change vs veh, EDEM3 / RFU, TMEM33 / Fold change vs veh, TMEM33 / RFU, WDR75 / Fold change vs veh, WDR75 / RFU, AHCTF1 / Fold change vs veh, AHCTF1 / RFU, TFRC / Fold change vs veh, TFRC / RFU, ZDHHC17 / Fold change vs veh, ZDHHC17 / RFU, NOM1 / Fold change vs veh, NOM1 / RFU, ARL8B / Fold change vs veh, ARL8B / RFU, ZBTB11 / Fold change vs veh, ZBTB11 / RFU, TAMM41 / Fold change vs veh, TAMM41 / RFU, KIAA1704 /// LOC100996395 / Fold change vs veh, KIAA1704 /// LOC100996395 / RFU, ING1 / Fold change vs veh, ING1 / RFU, TRMT61B / Fold change vs veh, TRMT61B / RFU, FUBP3 / Fold change vs veh, FUBP3 / RFU, TP53 / Fold change vs veh, TP53 / RFU, TNKS2 / Fold change vs veh, TNKS2 / RFU, ZFP14 / Fold change vs veh, ZFP14 / RFU, ACTR2 / Fold change vs veh, ACTR2 / RFU, PPP3R1 / Fold change vs veh, PPP3R1 / RFU, PIK3R1 / Fold change vs veh, PIK3R1 / RFU, HNRNPA1 / Fold change vs veh, HNRNPA1 / RFU, RNF170 / Fold change vs veh, RNF170 / RFU, ZNF28 / Fold change vs veh, ZNF28 / RFU, RNGTT / Fold change vs veh, RNGTT / RFU, OGT / Fold change vs veh, OGT / RFU, BRD1 / Fold change vs veh, BRD1 / RFU, MARS / Fold change vs veh, MARS / RFU, ZNF655 / Fold change vs veh, ZNF655 / RFU, FAHD1 / Fold change vs veh, FAHD1 / RFU, BDP1 / Fold change vs veh, BDP1 / RFU, LRRCC1 / Fold change vs veh, LRRCC1 / RFU, ARID1A / Fold change vs veh, ARID1A / RFU, ZNF146 / Fold change vs veh, ZNF146 / RFU, ZNF330 / Fold change vs veh, ZNF330 / RFU, GPN3 / Fold change vs veh, GPN3 / RFU, C9orf123 / Fold change vs veh, C9orf123 / RFU, N4BP2L2 / Fold change vs veh, N4BP2L2 / RFU, ARFIP1 / Fold change vs veh, ARFIP1 / RFU, FAM179B / Fold change vs veh, FAM179B / RFU, BCL10 / Fold change vs veh, BCL10 / RFU, UHRF1BP1L / Fold change vs veh, UHRF1BP1L / RFU, BET1 / Fold change vs veh, BET1 / RFU, CNOT2 / Fold change vs veh, CNOT2 / RFU, ZNF268 / Fold change vs veh, ZNF268 / Fold change vs veh, ZNF507 / RFU, DGCR2 / Fold change vs veh, DGCR2 / RFU, WDSUB1 / Fold change vs veh, WDSUB1 / Fold change vs veh, HSP90B1 /// MIR3652 / RFU, ADSS / Fold change vs veh, ADSS / RFU, GK / Fold change vs veh, GK / RFU, ZNF148 / Fold change vs veh, ZNF148 / RFU, TAF9 / Fold change vs veh, TAF9 / RFU, SLC1A5 / Fold change vs veh, SLC1A5 / RFU, SLMO2 / Fold change vs veh, SLMO2 / RFU, ABCC4 / Fold change vs veh, ABCC4 / RFU, LOC101060439 /// RAP1B / Fold change vs veh, LOC101060439 /// RAP1B / RFU, RFX7 / Fold change vs veh, RFX7 / RFU, GTPBP10 / Fold change vs veh, GTPBP10 / RFU, CNEP1R1 / Fold change vs veh, CNEP1R1 / RFU, BIVM-ERCC5 /// ERCC5 / Fold change vs veh, BIVM-ERCC5 /// ERCC5 / RFU, ILF3 / Fold change vs veh, ILF3 / RFU 11762660_at / Fold change /veh 11762660_at / RFU VCAN (11757783_s_at) / Fold change /veh VCAN (11757783_s_at) / RFU DDX43 (11728927_at) / Fold change /veh DDX43 (11728927_at) / RFU KRT8 (11758188_x_at) / Fold change /veh KRT8 (11758188_x_at) / RFU NKD1 (11759106_at) / Fold change /veh NKD1 (11759106_at) / RFU SRD5A1 (11742802_a_at) / Fold change /veh SRD5A1 (11742802_a_at) / RFU TPSAB1 /// TPSB2 (11721975_s_at) / Fold change /veh TPSAB1 /// TPSB2 (11721975_s_at) / RFU GSTM3 (11746129_a_at) / Fold change /veh GSTM3 (11746129_a_at) / RFU IL23R (11737362_x_at) / Fold change /veh IL23R (11737362_x_at) / RFU TMEM51 (11727254_a_at) / Fold change /veh TMEM51 (11727254_a_at) / RFU PIWIL2 (11732686_x_at) / Fold change /veh PIWIL2 (11732686_x_at) / RFU ORM1 (11744905_x_at) / Fold change /veh ORM1 (11744905_x_at) / RFU CCDC152 (11743942_at) / Fold change /veh CCDC152 (11743942_at) / RFU ECM1 (11717891_a_at) / Fold change /veh ECM1 (11717891_a_at) / RFU IL23R (11748794_a_at) / Fold change /veh IL23R (11748794_a_at) / RFU TNFAIP8L3 (11732012_x_at) / Fold change /veh TNFAIP8L3 (11732012_x_at) / RFU MBOAT4 (11741988_at) / Fold change /veh MBOAT4 (11741988_at) / RFU 11764193_at / Fold change /veh 11764193_at / RFU TMEM53 (11763286_at) / Fold change /veh TMEM53 (11763286_at) / RFU MAGEB2 (11727129_at) / Fold change /veh MAGEB2 (11727129_at) / RFU TMEM200A (11744735_a_at) / Fold change /veh TMEM200A (11744735_a_at) / RFU CCDC152 (11751479_a_at) / Fold change /veh CCDC152 (11751479_a_at) / RFU FAM211A (11726209_a_at) / Fold change /veh FAM211A (11726209_a_at) / RFU RGS16 (11746705_a_at) / Fold change /veh RGS16 (11746705_a_at) / RFU VCAN (11755009_s_at) / Fold change /veh VCAN (11755009_s_at) / RFU RHOB (11743442_s_at) / Fold change /veh RHOB (11743442_s_at) / RFU RGS16 (11720943_a_at) / Fold change /veh RGS16 (11720943_a_at) / RFU RGS16 (11720944_at) / Fold change /veh RGS16 (11720944_at) / RFU, VPS4B / Fold change vs veh, VPS4B / RFU, CREB1 / Fold change vs veh, CREB1 / RFU, DNAJC13 / Fold change vs veh, DNAJC13 / RFU, GNAQ / Fold change vs veh, GNAQ / RFU, CDK5R1 / Fold change vs veh, CDK5R1 / RFU, ZRANB3 / Fold change vs veh, ZRANB3 / RFU, CUL4A / Fold change vs veh, CUL4A / RFU, CCNY / Fold change vs veh, CCNY / RFU, UFL1 / Fold change vs veh, UFL1 / RFU, COG3 / Fold change vs veh, COG3 / RFU, DIAPH2 / Fold change vs veh, DIAPH2 / RFU, SKA2 / Fold change vs veh, SKA2 / RFU, AFF3 / Fold change vs veh, AFF3 / RFU, LMF1 / Fold change vs veh, LMF1 / RFU, IPO11 / Fold change vs veh, IPO11 / RFU, DFFB / Fold change vs veh, DFFB / RFU, FOXP1 / Fold change vs veh, FOXP1 / RFU, CARD8 / Fold change vs veh, CARD8 / RFU, STRN3 / Fold change vs veh, STRN3 / RFU, ADK / Fold change vs veh, ADK / RFU, RASSF2 / Fold change vs veh, RASSF2 / RFU, WIPF1 / Fold change vs veh, WIPF1 / RFU, LARP1B / Fold change vs veh, LARP1B / RFU, RASA1 / Fold change vs veh, RASA1 / RFU, RB1 / Fold change vs veh, RB1 / RFU, PPFIA1 / Fold change vs veh, PPFIA1 / RFU, MAT2A / Fold change vs veh, MAT2A / RFU, CCT5 / Fold change vs veh, CCT5 / RFU, WDR92 / Fold change vs veh, WDR92 / RFU, CUX1 / Fold change vs veh, CUX1 / RFU, TTC7A / Fold change vs veh, TTC7A / RFU, TMEM135 / Fold change vs veh, TMEM135 / RFU, DEPTOR / Fold change vs veh, DEPTOR / RFU, CPM / Fold change vs veh, CPM / RFU, DNAJB6 / Fold change vs veh, DNAJB6 / RFU, CACNA2D3 / Fold change vs veh, CACNA2D3 / RFU, DTX4 / Fold change vs veh, DTX4 / RFU, TFCP2 / Fold change vs veh, TFCP2 / RFU, GMCL1 /// GMCL1P1 / Fold change vs veh, GMCL1 /// GMCL1P1 / RFU, AEBP2 / Fold change vs veh, AEBP2 / RFU, SNHG1 /// SNORD22 /// SNORD25 /// SNORD26 /// SNORD27 /// SNORD28 /// SNORD29 /// SNORD31 / Fold change vs veh, SNHG1 /// SNORD22 /// SNORD25 /// SNORD26 /// SNORD27 /// SNORD28 /// SNORD29 /// SNORD31 / Fold change (Aza/veh), C12orf56 (ProbeSet 11735607_a_at) / Fold change (ACY-1035/veh), C12orf56 (ProbeSet 11735607_a_at) / Fold change (Aza/veh), FGFR1OP (ProbeSet 11751329_s_at) / Fold change (ACY-1035/veh), FGFR1OP (ProbeSet 11751329_s_at) / Fold change (Aza/veh), VPS36 (ProbeSet 11739960_a_at) / Fold change (ACY-1035/veh), VPS36 (ProbeSet 11739960_a_at) / RFU SYPL1 (11715823_x_at) / Fold change /veh SYPL1 (11715823_x_at) / RFU IGFBP7 (11715501_s_at) / Fold change /veh IGFBP7 (11715501_s_at) / RFU REEP3 (11722064_at) / Fold change /veh REEP3 (11722064_at) / RFU IGLL1 (11728026_x_at) / Fold change /veh IGLL1 (11728026_x_at): dose or concentration left out as unconfirmed
Details: ProbeSet 11716999_a_at; LIST D

Nc1ccc(-c2cccs2)cc1NC(=O)c1ccc2c(c1)cc(C1CC1)n2CCN1CCOCC1 [ACY-1035]
RFU, RASA1: 200.63 RFU
